Experiment: Inhibition of recombinant perforin-mediated lysis of human Jurkat T cells by 51Cr release assay

SMILES	IC50 [µM]
COc1ccc2scc(/C=C3\OC(=O)c4c3cc(C)[nH]c4=S)c2c1 [(Z)-1-((5-Methoxybenzo[b]thiophen-3-yl)methylene)-6-methyl-4-thioxo-4,5-dihydrofuro[3,4-c]pyridin-3(1H)-one]	5.1
Cc1cc2c(c(=S)[nH]1)C(=O)O/C2=C\c1ccc(N(C)C)cc1 [(Z)-1-(4-(Dimethylamino)benzylidene)-6-methyl-4-thioxo-4,5-dihydrofuro[3,4-c]pyridin-3(1H)-one]	> 20
Cc1cc2c(c(=S)[nH]1)C(=O)O/C2=C\c1ccc(OC(F)(F)F)cc1 [(Z)-6-Methyl-4-thioxo-1-(4-(trifluoromethoxy)benzylidene)-4,5-dihydrofuro[3,4-c]pyridin-3(1H)-one]	> 20
Cc1cc2c(c(=S)[nH]1)C(=O)O/C2=C\c1ccc(C(F)(F)F)cc1 [(Z)-6-Methyl-4-thioxo-1-(4-(trifluoromethyl)benzylidene)-4,5-dihydrofuro[3,4-c]pyridin-3(1H)-one]	> 20
Cc1cc2c(c(=O)[nH]1)C(=O)O/C2=C\c1ccc(-c2ccccc2)s1 [(Z)-6-Methyl-1-((5-phenylthiophen-2-yl)methylene)furo[3,4-c]pyridine-3,4(1H,5H)-dione]	5
Cc1cc2c(c(=O)[nH]1)C(=O)O/C2=C\c1ccc(C)o1 [(Z)-6-Methyl-1-((5-methylfuran-2-yl)methylene)furo[3,4-c]pyridine-3,4(1H,5H)-dione]	> 20
Cc1cc2c(c(=S)[nH]1)C(=O)O/C2=C\c1ccoc1 [(Z)-1-(Furan-3-ylmethylene)-6-methyl-4-thioxo-4,5-dihydrofuro[3,4-c]pyridin-3(1H)-one]	> 20
CC(=O)Nc1ccc(/C=C2\OC(=O)c3c2cc(C)[nH]c3=S)cc1 [(Z)-N-(4-((6-Methyl-3-oxo-4-thioxo-4,5-dihydrofuro[3,4-c]pyridin-1(3H)-ylidene)methyl)phenyl)acetamide]	> 20
Cc1cc2c(c(=S)[nH]1)C(=O)O/C2=C\c1ncc[nH]1 [(Z)-1-((1H-Imidazol-2-yl)methylene)-6-methyl-4-thioxo-4,5-dihydrofuro[3,4-c]pyridin-3(1H)-one]	> 20
Cc1cc2c(c(=O)[nH]1)C(=O)N/C2=C\c1ccc(-c2ccccc2)s1 [(Z)-6-Methyl-1-((5-phenylthiophen-2-yl)methylene)-1H-pyrrolo[3,4-c]pyridine-3,4(2H,5H)-dione]	> 20
COc1cccc2scc(/C=C3\OC(=O)c4c3cc(C)[nH]c4=S)c12 [(Z)-1-[(4-Methoxy-1-benzothien-3-yl)methylene]-6-methyl-4-thioxo-4,5-dihydrofuro[3,4-c]pyridine-3(1H)-one]	3.8
COc1ccc2cc(/C=C3\OC(=O)c4c3cc(C)[nH]c4=S)oc2c1 [(Z)-1-((6-Methoxybenzofuran-2-yl)methylene)-6-methyl-4-thioxo-4,5-dihydrofuro[3,4-c]pyridin-3(1H)-one]	7.2
Cc1cc2c(c(=O)[nH]1)C(=O)O/C2=C\c1ccc[nH]1 [(Z)-1-((1H-Pyrrol-2-yl)methylene)-6-methylfuro[3,4-c]pyridine-3,4(1H,5H)-dione]	> 20
Cc1cc2c(c(=S)[nH]1)C(=O)O/C2=C\c1ccsc1 [(Z)-6-Methyl-1-(thiophen-3-ylmethylene)-4-thioxo-4,5-dihydrofuro[3,4-c]pyridin-3(1H)-one]	> 20
Cc1cc2c(c(=O)[nH]1)C(=O)O/C2=C\c1cn(C)c2ccccc12 [(Z)-6-Methyl-1-((1-methyl-1H-indol-3-yl)methylene)furo[3,4-c]pyridine-3,4(1H,5H)-dione]	> 20
Cc1cc2c(c(=O)[nH]1)C(=O)O/C2=C\c1csc2ccccc12 [(Z)-1-(Benzo[b]thiophen-3-ylmethylene)-6-methylfuro[3,4-c]pyridine-3,4(1H,5H)-dione]	8.5
COc1ccc2cc(/C=C3\OC(=O)c4c3cc(C)[nH]c4=S)sc2c1 [(Z)-1-((6-Methoxybenzo[b]thiophen-2-yl)methylene)-6-methyl-4-thioxo-4,5-dihydrofuro[3,4-c]pyridin-3(1H)-one]	5.4
COc1ccc2c(/C=C3\OC(=O)c4c3cc(C)[nH]c4=S)csc2c1 [(Z)-1-((6-Methoxybenzo[b]thiophen-3-yl)methylene)-6-methyl-4-thioxo-4,5-dihydrofuro[3,4-c]pyridin-3(1H)-one]	4.7
COc1cccc2oc(/C=C3\OC(=O)c4c3cc(C)[nH]c4=S)cc12 [(Z)-1-((4-Methoxybenzofuran-2-yl)methylene)-6-methyl-4-thioxo-4,5-dihydrofuro[3,4-c]pyridin-3(1H)-one]	6.7

The next lines start with the values.

IC50 [µM]	SMILES
8.2	Cc1cc2c(c(=S)[nH]1)C(=O)O/C2=C\c1cc2ccccc2o1 [(Z)-1-(Benzofuran-2-ylmethylene)-6-methyl-4-thioxo-4,5-dihydrofuro[3,4-c]pyridin-3(1H)-one]
4.4	Cc1cc2c(c(=S)[nH]1)C(=O)O/C2=C\c1ccco1 [(Z)-1-(Furan-2-ylmethylene)-6-methyl-4-thioxo-4,5-dihydrofuro[3,4-c]pyridin-3(1H)-one]
9.5	Cc1cc2c(c(=S)[nH]1)C(=O)O/C2=C\c1cc2ccccc2s1 [(Z)-1-(Benzo[b]thiophen-2-ylmethylene)-6-methyl-4-thioxo-4,5-dihydrofuro[3,4-c]pyridin-3(1H)-one]
4	Cc1cc2c(c(=S)[nH]1)C(=O)O/C2=C\c1ccc(-c2ccccc2)o1 [(Z)-6-Methyl-1-((5-phenylfuran-2-yl)methylene)-4-thioxo-4,5-dihydrofuro[3,4-c]pyridin-3(1H)-one]
4.6	COc1ccc2[nH]c(/C=C3\OC(=O)c4c3cc(C)[nH]c4=S)cc2c1 [(Z)-1-((5-Methoxy-1H-indol-2-yl)methylene)-6-methyl-4-thioxo-4,5-dihydrofuro[3,4-c]pyridin-3(1H)-one]
3	COc1cccc2cc(/C=C3\OC(=O)c4c3cc(C)[nH]c4=S)oc12 [(Z)-1-((7-Methoxybenzofuran-2-yl)methylene)-6-methyl-4-thioxo-4,5-dihydrofuro[3,4-c]pyridin-3(1H)-one]
> 20	Cc1cc2c(c(=S)[nH]1)C(=O)O/C2=C\c1c[nH]c2ccccc12 [(Z)-1-((1H-Indol-3-yl)methylene)-6-methyl-4-thioxo-4,5-dihydrofuro[3,4-c]pyridin-3(1H)-one]
7.5	Cc1cc2c(c(=S)[nH]1)C(=O)O/C2=C\c1csc2ccc(Br)cc12 [(Z)-1-((5-Bromobenzo[b]thiophen-3-yl)methylene)-6-methyl-4-thioxo-4,5-dihydrofuro[3,4-c]pyridin-3(1H)-one]
8.6	Cc1cc2c(c(=S)[nH]1)C(=O)O/C2=C\c1cccs1 [(Z)-6-Methyl-1-(thiophen-2-ylmethylene)-4-thioxo-4,5-dihydrofuro[3,4-c]pyridin-3(1H)-one]
> 20	Cc1cc2c(c(=S)[nH]1)C(=O)O/C2=C\c1cc2cc(OCc3ccccc3)ccc2[nH]1 [(Z)-1-((5-(Benzyloxy)-1H-indol-2-yl)methylene)-6-methyl-4-thioxo-4,5-dihydrofuro[3,4-c]pyridin-3(1H)-one]
7.2	Cc1cc2c(c(=S)[nH]1)C(=O)O/C2=C\c1ccc(C)s1 [(Z)-6-Methyl-1-((5-methylthiophen-2-yl)methylene)-4-thioxo-4,5-dihydrofuro[3,4-c]pyridin-3(1H)-one]
4.1	Cc1cc2c(c(=S)[nH]1)C(=O)O/C2=C\c1cccc2cc[nH]c12 [(Z)-1-((1H-Indol-7-yl)methylene)-6-methyl-4-thioxo-4,5-dihydrofuro[3,4-c]pyridin-3(1H)-one]
> 20	Cc1cc2c(c(=S)[nH]1)C(=O)O/C2=C\c1coc2ccccc12 [(Z)-1-(Benzofuran-3-ylmethylene)-6-methyl-4-thioxo-4,5-dihydrofuro[3,4-c]pyridin-3(1H)-one]
> 20	CSc1ccc(/C=C2\OC(=O)c3c2cc(C)[nH]c3=S)cc1 [(Z)-6-Methyl-1-(4-(methylthio)benzylidene)-4-thioxo-4,5-dihydrofuro[3,4-c]pyridin-3(1H)-one]
> 20	Cc1cc2c(c(=S)[nH]1)C(=O)O/C2=C\c1ccccc1 [(Z)-1-Benzylidene-6-methyl-4-thioxo-4,5-dihydrofuro[3,4-c]pyridin-3(1H)-one]
> 20	Cc1cc2c(c(=S)[nH]1)C(=O)O/C2=C\c1ccc(F)cc1 [(Z)-1-(4-Fluorobenzylidene)-6-methyl-4-thioxo-4,5-dihydrofuro[3,4-c]pyridin-3(1H)-one]
> 20	COc1cc2cc(/C=C3\OC(=O)c4c3cc(C)[nH]c4=S)[nH]c2cc1OCc1ccccc1 [(Z)-1-((6-(Benzyloxy)-5-methoxy-1H-indol-2-yl)methylene)-6-methyl-4-thioxo-4,5-dihydrofuro[3,4-c]pyridin-3(1H)-one]
> 20	Cc1cc2c(c(=S)[nH]1)C(=O)O/C2=C\c1ccc(-c2ccccc2)cc1 [(Z)-1-(Biphenyl-4-ylmethylene)-6-methyl-4-thioxo-4,5-dihydrofuro[3,4-c]pyridin-3(1H)-one]
3.1	COc1ccc2cc(/C=C3\OC(=O)c4c3cc(C)[nH]c4=S)[nH]c2c1 [(Z)-1-((6-Methoxy-1H-indol-2-yl)methylene)-6-methyl-4-thioxo-4,5-dihydrofuro[3,4-c]pyridin-3(1H)-one]
1.3	Cc1cc2c(c(=S)[nH]1)C(=O)O/C2=C\c1cc2ccccc2[nH]1 [(Z)-1-((1H-Indol-2-yl)methylene)-6-methyl-4-thioxo-4,5-dihydrofuro[3,4-c]pyridin-3(1H)-one]
> 20	Cc1ccc(/C=C2\OC(=O)c3c2cc(C)[nH]c3=S)cc1 [(Z)-6-Methyl-1-(4-methylbenzylidene)-4-thioxo-4,5-dihydrofuro[3,4-c]pyridin-3(1H)-one]
3.4	Cc1cc2c(c(=S)[nH]1)C(=O)O/C2=C\c1ccc(-c2ccccc2)s1 [(Z)-6-Methyl-1-((5-phenylthiophen-2-yl)methylene)-4-thioxo-4,5-dihydrofuro[3,4-c]pyridin-3(1H)-one]
4.6	Cc1cc2c(c(=O)[nH]1)C(=O)O/C2=C\c1cc2ccccc2s1 [(Z)-1-(Benzo[b]thiophen-2-ylmethylene)-6-methylfuro[3,4-c]pyridine-3,4(1H,5H)-dione]
2.4	COc1ccc2oc(/C=C3\OC(=O)c4c3cc(C)[nH]c4=S)cc2c1 [(Z)-1-((5-Methoxybenzofuran-2-yl)methylene)-6-methyl-4-thioxo-4,5-dihydrofuro[3,4-c]pyridin-3(1H)-one]
